The source of these data is patent US20230285323A1, “ESKETAMINE-SUSPENSION-TTS” (LTS LOHMANN THERAPIE-SYSTEME AG, priority 2020, published 2023).

The data set can be described thus: Saturation concentration (solubility) of ketamine in silicone pressure sensitive adhesive.

On to `CNC1(c2ccccc2Cl)CCCCC1=O` (racemic) [ketamine, (RS)-(±)-2-(2-chlorophenyl)-2-(methylamino)cyclohexan-1-one], for which the “Solubility of ketamine in the silicone pressure sensitive adhesive” value was “not more than 1 wt.-%”.
